No end group written: not given here.
Columns and labels:
[1] = tested on: Human macrophage-like THP-1 cells; assay: ELISA of cytokine/chemokine production in THP-1 tissue culture supernatants; type: cell-based; details: macrophage-like THP-1 cells, IL-32 20 ng/mL, 24 hr
Experimental: ELISA immunoassay: Tissue culture supernatants were centrifuged at 1500× g for 5-7 min to obtain cell-free samples and the aliquots were stored at −20° C. until further use. Production of chemokine Gro-α was monitored in the tissue culture supernatants by ELISA employing human Gro-α DuoSet (R&D Systems Inc.) as per the manufacturer's instructions. Production of cytokine TNF-α was monitored in the tissue culture supernatants using specific antibody pairs from eBioscience, Inc., and production of IL-8 was monitored using specific antibody pairs from R&D Systems, Inc., as per the manufacturer's instructions. The concentration of the cytokines or chemokines in the tissue culture supernatants was evaluated by establishing a standard curve with serial dilutions of the recombinant human cytokines or chemokines as required.
ELISA immunoassay: Tissue culture supernatants were centrifuged at 1500× g for 5-7 min to obtain cell-free samples and the aliquots were stored at −20° C. until further use. Production of chemokine Gro-α was monitored in the tissue culture supernatants by ELISA employing human Gro-α DuoSet (R&D Systems Inc.) per the manufacturer's instructions. Production of cytokine TNF-α was monitored in the tissue culture supernatants using specific antibody pairs from eBioscience, Inc., and production of IL-8 was monitored using specific antibody pairs from R&D Systems, Inc., per the manufacturers' instructions. The concentrations of the cytokines or chemokines in the tissue culture supernatants were evaluated by establishing a standard curve with serial dilutions of the recombinant human cytokines or chemokines as required.
Impact of cationic peptide LL-37 and its synthetic derivatives on IL-32-induced protein production: Human macrophage-like THP-1 cells were stimulated with IL-32 (20 ng/mL) in the presence and absence of cationic peptide LL-37, tissues culture supernatants were monitored for the production of pro-inflammatory cytokines TNF-α and IL-1β, and chemokines after 24 hr of stimulation. […] As LL-37 suppressed IL-32-mediated pro-inflammatory responses, we also evaluated the impact of LL-37 derived synthetic peptides. […] No studies to data have explored the impact of these peptides in the context of chronic inflammation. […] This provides the data that supports further investigation of these peptide candidates as potential therapeutics for diseases characterized by chronic inflammation.

human PBMC = assay: ELISA of IL-32-induced TNF-α and IL-1β production in PBMC (ex-vivo); type: cell-based; details: for Effect on IL-32-induced TNF-α production: p<0.05; for Effect on IL-32 induced pro-inflammatory protein production (FIG. 21 legend): peripheral blood mononuclear cells
Source text: In order to confirm these activities in a physiologically relevant system, we evaluated the impact of the peptide in an ex-vivo assay using human PBMC, because cells recruited from the circulation are a major component of inflammatory infiltrates. Venous blood was collected from healthy volunteers with informed consent in accordance to a protocol approved by the Institutional Review Board at the University of Manitoba. PBMC was isolated from blood following the teaching of Mookherjee et al. (2009, Systems biology evaluation of immune responses induced by human host defence peptide LL-37 in mononuclear cells. Mol. Biosyst. 5:483-496). PBMC were stimulated with chronic inflammatory cytokine IL-32 (20 ng/ml) in the presence and absence of 5 μM of peptides, LL-37 and its derivatives (Table 7) for 24 hr. The tissue culture supernatants were monitored for the production of pro-inflammatory cytokines TNF-α and IL-1β by ELISA. […] Results shown are an average of four independent biological experiments performed with cells isolated from blood of four different donors ±standard error.

[2] = human PBMC, IL-32 20 ng/ml, 5 μM peptide, 24 hr

| Substance | Effect on IL-32-induced IL-1β production [1] | Effect on IL-32-induced TNF-α production [1] | Effect on IL-32-induced chemokine production (IL-8, GROα) [1] | Effect on IL-32-induced IL-1β production (human PBMC; [2]) | Effect on IL-32-induced TNF-α production (human PBMC; [2]) | Effect on IL-32 induced pro-inflammatory protein production (FIG. 21 legend) (human PBMC) | Suppression of IL-32-induced TNF-α production (human PBMC; [2]) [%] |
| --- | --- | --- | --- | --- | --- | --- | --- |
| IG-19: LL-37-derived synthetic peptide, SEQ ID NO: 23, IGKEFKRIVQRIKDFLRNL-NH2 | significantly suppressed | significantly suppressed | did not completely neutralize | neutralized | neutralized | suppression | – |
| IG-25: LL-37-derived synthetic peptide, SEQ ID NO: 22, IGKEFKRIVQRIKDFLRNLVPRTES-NH2 | significantly suppressed | significantly suppressed | did not completely neutralize | – | neutralized | suppression | > 90 |
| RK-25: LL-37-derived synthetic peptide, SEQ ID NO: 24, RKSKEKIGKEFKRIVQRIKDFLRNL-NH2 | – | – | – | – | – | suppression | – |
